According to patent US20050013856A1, “Solid dispersions comprising a hygroscopic and/or deliquescent drug” (priority 2002, published 2005):

How the values were obtained:
[1] = Hygroscopicity / deliquescence of the unformulated drug; format: physicochemical
Description: It is particularly surprising that such a hygroscopic and deliquescent drug can be formulated in accordance with the present invention as an acceptably non-hygroscopic composition.

[2] = Solubility of the drug in matrix forming agents HPMC and PEG; format: physicochemical

Row | Molecule | Hygroscopicity and deliquescence [1] | Solubility in HPMC and PEG [2]
1 | CC(=N)NCCSC[C@](C)(N)C(=O)O [S-[2-[(1-iminoethyl)amino]ethyl]-2-methyl-L-cysteine] | extremely hygroscopic and deliquescent | low solubility
2 | S-[2-[(1-iminoethyl)amino]ethyl]-2-methyl-L-cysteine dihydrochoride [Compound A] | extremely hygroscopic and deliquescent | –
